Measured values: patent publication US9889115B2, “Fitness assay and associated methods” (priority 1998, dated 2018)

Assays:
[1] = tested on: wild-type HIV; test: wild-type antiretroviral activity (Table 4); conditions: Human immunodeficiency virus 1, read-out: ID50
[2] = molecular target: wild-type HIV protease (Human immunodeficiency virus type 1 group M subtype B, UniProt P04585); test: biochemical

## COc1ccc(S(=O)(=O)N(CC(C)C)CC(O)C(Cc2ccccc2)NC(=O)OC2COC3OCCCC23)cc1 (centres unmarked)
[1]
  IC50: 4.5 nM
[2]
  Ki: 2.2 nM
